The text below walks through data of US9416127B2, “Triazole carboxamides and uses thereof” (Hoffmann-La Roche Inc., priority 2012, dated 2016).

Where a name gives a salt, the structure may show the parent alone.

The target in one test is rat TAAR1 (Rattus norvegicus (Rat), UniProt Q923Y9). As to the kind of experiment: Radioligand binding assay on rat TAAR1. To be noted: rat TAAR1, HEK-293 membranes; second value of mouse/rat cell. How it is done:
(§1) Construction of TAAR Expression Plasmids and Stably Transfected Cell Lines
(§2) For the construction of expression plasmids the coding sequences of human, rat and mouse TAAR 1 were amplified from genomic DNA essentially as described by Lindemann et al.. The Expand High Fidelity PCR System (Roche Diagnostics) was used with 1.5 mM Mg^2+ and purified PCR products were cloned into pCR2.1-TOPO cloning vector (Invitrogen) following the instructions of the manufacturer. PCR products were subcloned into the pIRESneo2 vector (BD Clontech, Palo Alto, Calif.), and expression vectors were sequence verified before introduction in cell lines.
(§3) HEK293 cells (ATCC # CRL-1573) were cultured essentially as described by Lindemann et al. (2005). For the generation of stably transfected cell lines HEK293 cells were transfected with the pIRESneo2 expression plasmids containing the TAAR coding sequences (described above) with Lipofectamine 2000 (Invitrogen) according to the instructions of the manufacturer, and 24 hrs post transfection the culture medium was supplemented with 1 mg/ml G418 (Sigma, Buchs, Switzerland). After a culture period of about 10 d clones were isolated, expanded and tested for responsiveness to trace amines (all compounds purchased from Sigma) with the cAMP Biotrak Enzyme immunoassay (EIA) System (Amersham) following the non-acetylation EIA procedure provided by the manufacturer.
Radioligand Binding Assay on Rat TAAR1
(§4) Membrane Preparation and Radioligand Binding.
(§5) HEK-293 cells stably expressing rat TAAR1 were maintained at 37° C. and 5% CO2 in DMEM high glucose medium, containing fetal calf serum (10%, heat inactivated for 30 min at 56° C.), penicillin/streptomycin (1%), and 375 μg/ml geneticin (Gibco). Cells were released from culture flasks using trypsin/EDTA, harvested, washed twice with ice-cold PBS (without Ca^2+ and Mg^2+), pelleted at 1'000 rpm for 5 min at 4° C., frozen and stored at −80° C. Frozen pellets were suspended in 20 ml HEPES-NaOH (20 mM, pH 7.4) containing 10 mM EDTA and homogenized with a Polytron (PT 6000, Kinematica) at 14'000 rpm for 20 s. The homogenate was centrifuged at 48'000×g for 30 min at 4° C. Subsequently, the supernatant was removed and discarded, and the pellet resuspended in 20 ml HEPES-NaOH (20 mM, pH 7.4) containing 0.1 mM EDTA using the Polytron (20 s at 14'000 rpm). This procedure was repeated and the final pellet resuspended in HEPES-NaOH containing 0.1 mM EDTA and homogenized using the Polytron. Typically, aliquots of 2 ml membrane portions were stored at −80° C. With each new membrane batch the dissociation constant (Kd) was determined via a saturation curve. […] Nonspecific binding was defined as the amount of ^3[H]—(S)-4-[(ethyl-phenyl-amino)-methyl]-4,5-dihydro-oxazol-2-ylamine bound in the presence of 10 μM unlabeled ligand. All compounds were tested at a broad range of concentrations (10 μM to 10 μM) in duplicates. […] The 96 deep well plates were incubated for 1 hr at 4° C. Incubations were terminated by rapid filtration through Unifilter-96 plates (Packard Instrument Company) and glass filters GF/C (Perkin Elmer) presoaked for 1 hr in polyethylenimine (0.3%) and washed 3 times with 1 ml of cold binding buffer. After addition of 45 μl of Microscint 40 (PerkinElmer) the Unifilter-96 plate was sealed and after 1 hr the ratioactivity counted using a TopCount Microplate Scintillation Counter (Packard Instrument Company).

In the next test the target is mouse TAAR1 (Mus musculus (Mouse), UniProt Q923Y8). As to the kind of experiment: Radioligand binding assay on mouse TAAR1. The following applies: mouse TAAR1, HEK-293 membranes; first value of mouse/rat cell. On the procedure:
as §1, §2, §3
Radioligand Binding Assay on Mouse TAAR1
as §4
as §5, with “expressing mouse” for “expressing rat”, “(10 pM” for “(10 μM”

Chain of mouse TAAR1 (Q923Y8 whole entry): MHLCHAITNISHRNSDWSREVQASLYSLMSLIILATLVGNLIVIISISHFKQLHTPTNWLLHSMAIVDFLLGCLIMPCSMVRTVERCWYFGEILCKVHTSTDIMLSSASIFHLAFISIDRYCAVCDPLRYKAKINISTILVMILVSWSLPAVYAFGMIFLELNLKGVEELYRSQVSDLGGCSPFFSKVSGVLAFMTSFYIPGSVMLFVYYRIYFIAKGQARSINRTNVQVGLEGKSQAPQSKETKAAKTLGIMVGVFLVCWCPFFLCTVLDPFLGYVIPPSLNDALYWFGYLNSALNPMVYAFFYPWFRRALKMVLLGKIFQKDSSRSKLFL
Chain of rat TAAR1 (Q923Y9 whole entry): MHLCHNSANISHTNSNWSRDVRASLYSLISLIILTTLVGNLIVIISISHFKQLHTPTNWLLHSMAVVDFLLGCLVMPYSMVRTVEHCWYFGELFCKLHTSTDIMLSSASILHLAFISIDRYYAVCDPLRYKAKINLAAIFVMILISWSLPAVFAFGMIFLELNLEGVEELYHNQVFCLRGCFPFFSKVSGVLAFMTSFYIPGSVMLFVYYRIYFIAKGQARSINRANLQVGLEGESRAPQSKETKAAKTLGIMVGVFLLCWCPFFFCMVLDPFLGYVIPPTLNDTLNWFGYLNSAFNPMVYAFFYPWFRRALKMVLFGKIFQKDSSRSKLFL

As to `CCOc1ccc(-n2cc(C(=O)Nc3ccc([C@H]4CNCCO4)cc3)nn2)cc1` [Example 21, (S)-1-(4-Ethoxyphenyl)-N-(4-(morpholin-2-yl)phenyl)-1H-1,2,3-triazole-4-carboxamide hydrochloride], the Ki was found to be 0.0293 µM on rat TAAR1 and 0.0018 µM at mouse TAAR1.

Take `O=C(Nc1ccc([C@H]2CNCCO2)cc1)c1cnn(-c2ccc(OC(F)(F)F)cc2)n1` [Example 15, (S)—N-(4-(Morpholin-2-yl)phenyl)-2-(4-(trifluoromethoxy)phenyl)-2H-1,2,3-triazole-4-carboxamide hydrochloride]: the values for the Ki on rat TAAR1 and on mouse TAAR1 were 0.0001 µM and 0.0002 µM, respectively.

As for `COc1cccc(-n2cc(C(=O)Nc3ccc([C@H]4CNCCO4)cc3)nn2)c1` [Example 25, (S)-1-(3-Methoxyphenyl)-N-(4-(morpholin-2-yl)phenyl)-1H-1,2,3-triazole-4-carboxamide hydrochloride], the Ki at rat TAAR1 stood at 0.0092 µM; at mouse TAAR1, 0.0014 µM.

Take `Cc1ccc(-n2ncc(C(=O)Nc3ccc([C@H]4CNCCO4)cc3)n2)cc1` [Example 18, (S)—N-(4-(Morpholin-2-yl)phenyl)-2-p-tolyl-2H-1,2,3-triazole-4-carboxamide hydrochloride]: the Ki at rat TAAR1 turned out to be 0.0016 µM; at mouse TAAR1 it was 0.0007 µM.

Regarding `O=C(Nc1ccc(C2CCNC2)cc1)c1cnn(-c2ccccc2)n1` (racemic) [Example 34, (RS)-2-Phenyl-N-(4-(pyrrolidin-3-yl)phenyl)-2H-1,2,3-triazole-4-carboxamide], the figures for the Ki at rat TAAR1 and at mouse TAAR1 were 0.001 µM and 0.0032 µM, respectively.

`O=C(Nc1ccc(C2CCCNC2)cc1)c1cnn(-c2ccccc2)n1` (racemic) [Example 35, (RS)-2-Phenyl-N-(4-(piperidin-3-yl)phenyl)-2H-1,2,3-triazole-4-carboxamide]: the affinity on rat TAAR1 corresponds to a Ki of 0.0017 µM.

As to `O=C(Nc1ccc([C@@H]2CNCCO2)cc1)c1cnn(-c2ccccc2)n1` [Example 8, (R)—N-(4-(Morpholin-2-yl)phenyl)-2-phenyl-2H-1,2,3-triazole-4-carboxamide hydrochloride], the Ki was 0.0008 µM on rat TAAR1 and 0.0014 µM on mouse TAAR1.

`O=C(Nc1ccc([C@H]2CNCCO2)cc1)c1cn(-c2cccc(OC(F)F)c2)nn1` [Example 29, (S)-1-(3-(Difluoromethoxy)phenyl)-N-(4-(morpholin-2-yl)phenyl)-1H-1,2,3-triazole-4-carboxamide hydrochloride]: the Ki came to 0.0006 µM at rat TAAR1 and 0.0009 µM on mouse TAAR1.

On to `O=C(Nc1ccc([C@H]2CNCCO2)cc1)c1cnn(-c2cccc(OC(F)(F)F)c2)n1` [Example 28, (S)—N-(4-(Morpholin-2-yl)phenyl)-2-(3-(trifluoromethoxy)phenyl)-2H-1,2,3-triazole-4-carboxamide hydrochloride], for which the Ki is 0.0156 µM at rat TAAR1 and 0.0034 µM at mouse TAAR1.

As to `O=C(Nc1ccc([C@H]2CNCCO2)cc1)c1cnn(-c2cccc(Cl)c2)n1` [Example 12, (S)-2-(3-Chlorophenyl)-N-(4-(morpholin-2-yl)phenyl)-2H-1,2,3-triazole-4-carboxamide hydrochloride], the Ki on rat TAAR1 and at mouse TAAR1 was 0.0002 µM in each case.

For the compound `COc1ccc(-n2cc(C(=O)Nc3ccc([C@H]4CNCCO4)cc3)nn2)cc1` [Example 19, (S)-1-(4-Methoxyphenyl)-N-(4-(morpholin-2-yl)phenyl)-1H-1,2,3-triazole-4-carboxamide hydrochloride], the Ki at rat TAAR1 came out at 0.0388 µM; at mouse TAAR1, 0.0016 µM.

Turning to `Cc1nn(-c2ccccc2)nc1C(=O)Nc1ccc([C@@H]2CNCCO2)cc1` [Example 7, (R)-5-Methyl-N-(4-(morpholin-2-yl)phenyl)-2-phenyl-2H-1,2,3-triazole-4-carboxamide hydrochloride], the Ki stood at 0.0002 µM at rat TAAR1 and 0.0027 µM at mouse TAAR1.

Consider `CCOc1ccc(-n2ncc(C(=O)Nc3ccc([C@H]4CNCCO4)cc3)n2)cc1` [Example 22, (S)-2-(4-Ethoxyphenyl)-N-(4-(morpholin-2-yl)phenyl)-2H-1,2,3-triazole-4-carboxamide hydrochloride], for which the Ki on rat TAAR1 came out at 0.001 µM; at mouse TAAR1 it was 0.0008 µM.

Regarding `O=C(Nc1ccc([C@H]2CNCCO2)cc1)c1cn(-c2cccc(OC(F)(F)F)c2)nn1` [Example 27, (S)—N-(4-(Morpholin-2-yl)phenyl)-1-(3-(trifluoromethoxy)phenyl)-1H-1,2,3-triazole-4-carboxamide hydrochloride], the values for the Ki at rat TAAR1 and on mouse TAAR1 were 0.0154 µM and 0.0068 µM, respectively.

Regarding `COc1ccc(-n2ncc(C(=O)Nc3ccc([C@H]4CNCCO4)cc3)n2)cc1` [Example 20, (S)-2-(4-Methoxyphenyl)-N-(4-(morpholin-2-yl)phenyl)-2H-1,2,3-triazole-4-carboxamide hydrochloride], the Ki turned out to be 0.0019 µM at rat TAAR1 and 0.0014 µM on mouse TAAR1.

For the compound `O=C(Nc1ccc([C@H]2CNCCO2)cc1)c1cnn(-c2ccccc2)n1` [Example 1, (S)—N-(4-(Morpholin-2-yl)phenyl)-2-phenyl-2H-1,2,3-triazole-4-carboxamide hydrochloride], the Ki worked out at 0.0013 µM at rat TAAR1 and 0.0012 µM at mouse TAAR1.

For the compound `O=C(Nc1ccc([C@H]2CNCCO2)cc1)c1cnn(-c2ccc(Cl)cc2)n1` [Example 6, (S)-2-(4-Chlorophenyl)-N-(4-(morpholin-2-yl)phenyl)-2H-1,2,3-triazole-4-carboxamide hydrochloride], the Ki was determined as 0.0002 µM on rat TAAR1 and 0.0004 µM at mouse TAAR1.

As for `O=C(Nc1ccc([C@H]2CNCCO2)cc1)c1cnn(-c2cccc(F)c2)n1` [Example 11, (S)-2-(3-Fluorophenyl)-N-(4-(morpholin-2-yl)phenyl)-2H-1,2,3-triazole-4-carboxamide hydrochloride], the Ki amounted to 0.0004 µM on rat TAAR1 and 0.0003 µM on mouse TAAR1.

Take `O=C(Nc1ccc([C@H]2CNCCO2)cc1)c1cn(-c2ccc(Br)cn2)nn1` [Example 36, (S)-1-(5-Bromopyridin-2-yl)-N-(4-(morpholin-2-yl)phenyl)-1H-1,2,3-triazole-4-carboxamide hydrochloride]: the Ki on rat TAAR1 was determined as 0.03 µM; on mouse TAAR1 it was 0.0046 µM.

Take `Cc1cccc(-n2cc(C(=O)Nc3ccc([C@H]4CNCCO4)cc3)nn2)c1` [Example 24, (S)—N-(4-(Morpholin-2-yl)phenyl)-1-m-tolyl-1H-1,2,3-triazole-4-carboxamide hydrochloride]: the Ki was determined as 0.0069 µM at rat TAAR1 and 0.0013 µM on mouse TAAR1.

As usually defined, the Ki is the equilibrium dissociation constant of an inhibitor or competing ligand from its target.
